Key:
wild oat [1] = assay: Test Example 4: herbicidal effect by soil treatment (Table 19, symbol I); format: in vivo, wild oat (Avena fatua); conditions: amount of applied herbicide 320 g/ha
How it was run: (§1)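 In this soil treatment, the formulated compound reached the seeds only through the soil: seeds were buried about 1.5 cm deep in sterilized diluvial soil, then the diluted emulsion was sprayed over the surface. After three weeks at 25° C. to 30° C. in a greenhouse, effects were graded on criteria from an earlier test.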

Italian ryegrass [2] = assay: Test Example 5: herbicidal effect by foliage application, plastic box (Table 20, symbol K); format: in vivo, Italian ryegrass (Lolium multiflorum); conditions: foliage application, AAH 320 g/ha, evaluated three weeks after application
How it was run: (§2)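 Plants were sown into sterilized diluvial soil under about 1.5 cm cover and kept in a greenhouse at 25° C. to 30° C. Fourteen days on, foliage received an even spray of the diluted emulsion. Herbicidal or crop effect was judged three weeks afterwards.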

Chinese sprangletop = assay: Test Example 3: herbicidal effect by foliage application, Wagner pot (Table 18, symbol D); format: in vivo, chinese sprangletop (Leptochloa chinensis); conditions: amount of applied herbicide 320 g/ha
How it was run: (§3)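 Plants were sown in alluvial soil held under 0.1–0.5 cm standing water and grown 14 days in a greenhouse at 25–30 °C. An emulsifiable formulation, water-diluted to the set dose, was then sprayed onto the foliage, and effects were scored three weeks later using previously defined criteria.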

green foxtail [3] = assay: Test Example 5: herbicidal effect by foliage application, plastic box (Table 20, symbol G); format: in vivo, green foxtail (Setaria viridis); conditions: foliage application, AAH 320 g/ha, evaluated three weeks after application
How it was run: as §2

Italian ryegrass [4] = assay: Test Example 4: herbicidal effect by soil treatment (Table 19, symbol K); format: in vivo, Italian ryegrass (Lolium multiflorum); conditions: amount of applied herbicide 320 g/ha
How it was run: as §1

chickweed [5] = assay: Test Example 4: herbicidal effect by soil treatment (Table 19, symbol P); format: in vivo, common chickweed (Stellaria media); conditions: amount of applied herbicide 320 g/ha
How it was run: as §1

barnyard grass [6] = assay: Test Example 4: herbicidal effect by soil treatment (Table 19, symbol H); format: in vivo, barnyard grass (Echinochloa crus-galli); conditions: amount of applied herbicide 320 g/ha
How it was run: as §1

lambsquarters [7] = assay: Test Example 5: herbicidal effect by foliage application, plastic box (Table 20, symbol O); format: in vivo, lambsquarters (Chenopodium album); conditions: foliage application, AAH 320 g/ha, evaluated three weeks after application
How it was run: as §2

southern crabgrass [8] = assay: Test Example 4: herbicidal effect by soil treatment (Table 19, symbol F); format: in vivo, southern crabgrass (Digitaria ciliaris); conditions: amount of applied herbicide 320 g/ha
How it was run: as §1

barnyard grass [9] = assay: Test Example 5: herbicidal effect by foliage application, plastic box (Table 20, symbol H); format: in vivo, barnyard grass (Echinochloa crus-galli); conditions: foliage application, AAH 320 g/ha, evaluated three weeks after application
How it was run: as §2

redroot pigweed [10] = assay: Test Example 5: herbicidal effect by foliage application, plastic box (Table 20, symbol N); format: in vivo, redroot pigweed (Amaranthus retroflexus); conditions: foliage application, AAH 320 g/ha, evaluated three weeks after application
How it was run: as §2

rice flat sedge = assay: Test Example 3: herbicidal effect by foliage application, Wagner pot (Table 18, symbol E); format: in vivo, rice flat sedge (Cyperus iria); conditions: amount of applied herbicide 320 g/ha
How it was run: as §3

southern crabgrass [11] = assay: Test Example 5: herbicidal effect by foliage application, plastic box (Table 20, symbol F); format: in vivo, southern crabgrass (Digitaria ciliaris); conditions: foliage application, AAH 320 g/ha, evaluated three weeks after application
How it was run: as §2

blackgrass [12] = assay: Test Example 4: herbicidal effect by soil treatment (Table 19, symbol J); format: in vivo, blackgrass (Alopecurus myosuroides); conditions: amount of applied herbicide 320 g/ha
How it was run: as §1

barnyard grass [13] = assay: Test Example 3: herbicidal effect by foliage application, Wagner pot (Table 18, symbol H); format: in vivo, barnyard grass (Echinochloa crus-galli); conditions: amount of applied herbicide 320 g/ha
How it was run: as §3

windgrass [14] = assay: Test Example 5: herbicidal effect by foliage application, plastic box (Table 20, symbol L); format: in vivo, windgrass (Apera spica-venti); conditions: foliage application, AAH 320 g/ha, evaluated three weeks after application
How it was run: as §2

chickweed [15] = assay: Test Example 5: herbicidal effect by foliage application, plastic box (Table 20, symbol P); format: in vivo, common chickweed (Stellaria media); conditions: foliage application, AAH 320 g/ha, evaluated three weeks after application
How it was run: as §2

green foxtail [16] = assay: Test Example 4: herbicidal effect by soil treatment (Table 19, symbol G); format: in vivo, green foxtail (Setaria viridis); conditions: amount of applied herbicide 320 g/ha
How it was run: as §1

wild oat [17] = assay: Test Example 5: herbicidal effect by foliage application, plastic box (Table 20, symbol I); format: in vivo, wild oat (Avena fatua); conditions: foliage application, AAH 320 g/ha, evaluated three weeks after application
How it was run: as §2

redroot pigweed [18] = assay: Test Example 4: herbicidal effect by soil treatment (Table 19, symbol N); format: in vivo, redroot pigweed (Amaranthus retroflexus); conditions: amount of applied herbicide 320 g/ha
How it was run: as §1

windgrass [19] = assay: Test Example 4: herbicidal effect by soil treatment (Table 19, symbol L); format: in vivo, windgrass (Apera spica-venti); conditions: amount of applied herbicide 320 g/ha
How it was run: as §1

lambsquarters [20] = assay: Test Example 4: herbicidal effect by soil treatment (Table 19, symbol O); format: in vivo, lambsquarters (Chenopodium album); conditions: amount of applied herbicide 320 g/ha
How it was run: as §1

blackgrass [21] = assay: Test Example 5: herbicidal effect by foliage application, plastic box (Table 20, symbol J); format: in vivo, blackgrass (Alopecurus myosuroides); conditions: foliage application, AAH 320 g/ha, evaluated three weeks after application
How it was run: as §2

persian speedwell [22] = assay: Test Example 4: herbicidal effect by soil treatment (Table 19, symbol R); format: in vivo, Persian speedwell (Veronica persica); conditions: amount of applied herbicide 320 g/ha
How it was run: as §1

persian speedwell [23] = assay: Test Example 5: herbicidal effect by foliage application, plastic box (Table 20, symbol R); format: in vivo, Persian speedwell (Veronica persica); conditions: foliage application, AAH 320 g/ha, evaluated three weeks after application
How it was run: as §2

velvetleaf [24] = assay: Test Example 4: herbicidal effect by soil treatment (Table 19, symbol M); format: in vivo, velvetleaf (Abutilon theophrasti); conditions: amount of applied herbicide 320 g/ha
How it was run: as §1

velvetleaf [25] = assay: Test Example 5: herbicidal effect by foliage application, plastic box (Table 20, symbol M); format: in vivo, velvetleaf (Abutilon theophrasti); conditions: foliage application, AAH 320 g/ha, evaluated three weeks after application
How it was run: as §2

Compound	herbicidal effect on I: wild oat (wild oat [1])	K: Italian ryegrass, herbicidal effect (criteria 0-5) (Italian ryegrass [2])	herbicidal effect on D: Chinese sprangletop (Chinese sprangletop)	G: green foxtail, herbicidal effect (criteria 0-5) (green foxtail [3])	herbicidal effect on K: Italian ryegrass (Italian ryegrass [4])	herbicidal effect on P: chickweed (chickweed [5])	herbicidal effect on H: barnyard grass (barnyard grass [6])	O: lambsquarters, herbicidal effect (criteria 0-5) (lambsquarters [7])	herbicidal effect on F: southern crabgrass (southern crabgrass [8])	H: barnyard grass, herbicidal effect (criteria 0-5) (barnyard grass [9])	N: redroot pigweed, herbicidal effect (criteria 0-5) (redroot pigweed [10])	herbicidal effect on E: rice flat sedge (rice flat sedge)	F: southern crabgrass, herbicidal effect (criteria 0-5) (southern crabgrass [11])	herbicidal effect on H: barnyard grass (barnyard grass [13])	L: windgrass, herbicidal effect (criteria 0-5) (windgrass [14])	P: chickweed, herbicidal effect (criteria 0-5) (chickweed [15])	I: wild oat, herbicidal effect (criteria 0-5) (wild oat [17])	J: blackgrass, herbicidal effect (criteria 0-5) (blackgrass [21])	R: persian speedwell, herbicidal effect (criteria 0-5) (persian speedwell [23])	M: velvetleaf, herbicidal effect (criteria 0-5) (velvetleaf [25])	other results
Cc1nn(C)c(=O)c(-c2c(-c3ccc(OC(F)F)cc3)sc3ccc(F)cc23)c1OC(=O)N(C)C [2-291]	0 (Herbicidal rate of 5% or less (almost no effect))	3 (Herbicidal rate of 40% or more and less than 70%)	3 (Herbicidal rate of 40% or more and less than 70%)	4 (Herbicidal rate of 70% or more and less than 90%)	0 (Herbicidal rate of 5% or less (almost no effect))	4 (Herbicidal rate of 70% or more and less than 90%)	0 (Herbicidal rate of 5% or less (almost no effect))	5 (Herbicidal rate of 90% or more (almost completely withered))	0 (Herbicidal rate of 5% or less (almost no effect))	0 (Herbicidal rate of 5% or less (almost no effect))	5 (Herbicidal rate of 90% or more (almost completely withered))	2 (Herbicidal rate of 20% or more and less than 40%)	0 (Herbicidal rate of 5% or less (almost no effect))	4 (Herbicidal rate of 70% or more and less than 90%)	0 (Herbicidal rate of 5% or less (almost no effect))	5 (Herbicidal rate of 90% or more (almost completely withered))	0 (Herbicidal rate of 5% or less (almost no effect))	3 (Herbicidal rate of 40% or more and less than 70%)	5 (Herbicidal rate of 90% or more (almost completely withered))	2 (Herbicidal rate of 20% or more and less than 40%)	herbicidal effect on J: blackgrass (blackgrass [12]): 0 (Herbicidal rate of 5% or less (almost no effect)); herbicidal effect on G: green foxtail (green foxtail [16]): 0 (Herbicidal rate of 5% or less (almost no effect)); herbicidal effect on N: redroot pigweed (redroot pigweed [18]): 3 (Herbicidal rate of 40% or more and less than 70%); herbicidal effect on L: windgrass (windgrass [19]): 0 (Herbicidal rate of 5% or less (almost no effect)); herbicidal effect on O: lambsquarters (lambsquarters [20]): 3 (Herbicidal rate of 40% or more and less than 70%); herbicidal effect on R: persian speedwell (persian speedwell [22]): 3 (Herbicidal rate of 40% or more and less than 70%); herbicidal effect on M: velvetleaf (velvetleaf [24]): 0 (Herbicidal rate of 5% or less (almost no effect))
Cc1nn(C)c(=O)c(-c2c(-c3ccc(Cl)cc3Cl)sc3ccc(F)cc23)c1O [2-346]	0 (Herbicidal rate of 5% or less (almost no effect))	3 (Herbicidal rate of 40% or more and less than 70%)	3 (Herbicidal rate of 40% or more and less than 70%)	0 (Herbicidal rate of 5% or less (almost no effect))	0 (Herbicidal rate of 5% or less (almost no effect))	0 (Herbicidal rate of 5% or less (almost no effect))	0 (Herbicidal rate of 5% or less (almost no effect))	2 (Herbicidal rate of 20% or more and less than 40%)	0 (Herbicidal rate of 5% or less (almost no effect))	0 (Herbicidal rate of 5% or less (almost no effect))	3 (Herbicidal rate of 40% or more and less than 70%)	1 (Herbicidal rate of 5% or more and less than 20%)	0 (Herbicidal rate of 5% or less (almost no effect))	4 (Herbicidal rate of 70% or more and less than 90%)	2 (Herbicidal rate of 20% or more and less than 40%)	5 (Herbicidal rate of 90% or more (almost completely withered))	0 (Herbicidal rate of 5% or less (almost no effect))	0 (Herbicidal rate of 5% or less (almost no effect))	4 (Herbicidal rate of 70% or more and less than 90%)	1 (Herbicidal rate of 5% or more and less than 20%)	herbicidal effect on J: blackgrass (blackgrass [12]): 0 (Herbicidal rate of 5% or less (almost no effect)); herbicidal effect on G: green foxtail (green foxtail [16]): 0 (Herbicidal rate of 5% or less (almost no effect)); herbicidal effect on N: redroot pigweed (redroot pigweed [18]): 0 (Herbicidal rate of 5% or less (almost no effect)); herbicidal effect on L: windgrass (windgrass [19]): 0 (Herbicidal rate of 5% or less (almost no effect)); herbicidal effect on O: lambsquarters (lambsquarters [20]): 3 (Herbicidal rate of 40% or more and less than 70%); herbicidal effect on R: persian speedwell (persian speedwell [22]): 0 (Herbicidal rate of 5% or less (almost no effect)); herbicidal effect on M: velvetleaf (velvetleaf [24]): 0 (Herbicidal rate of 5% or less (almost no effect))
CCn1nc(C)c(O)c(-c2c(-c3ccc(C(F)(F)F)cc3)sc3ccc(F)cc23)c1=O [2-402]	–	5 (Herbicidal rate of 90% or more (almost completely withered))	3 (Herbicidal rate of 40% or more and less than 70%)	3 (Herbicidal rate of 40% or more and less than 70%)	–	–	–	4 (Herbicidal rate of 70% or more and less than 90%)	–	5 (Herbicidal rate of 90% or more (almost completely withered))	4 (Herbicidal rate of 70% or more and less than 90%)	3 (Herbicidal rate of 40% or more and less than 70%)	4 (Herbicidal rate of 70% or more and less than 90%)	5 (Herbicidal rate of 90% or more (almost completely withered))	5 (Herbicidal rate of 90% or more (almost completely withered))	5 (Herbicidal rate of 90% or more (almost completely withered))	4 (Herbicidal rate of 70% or more and less than 90%)	5 (Herbicidal rate of 90% or more (almost completely withered))	5 (Herbicidal rate of 90% or more (almost completely withered))	4 (Herbicidal rate of 70% or more and less than 90%)	herbicidal effect, I: wild oat (wild oat [1]): 0 (Herbicidal rate of 5% or less (almost no effect)); herbicidal effect, K: Italian ryegrass (Italian ryegrass [4]): 2 (Herbicidal rate of 20% or more and less than 40%); herbicidal effect, P: chickweed (chickweed [5]): 4 (Herbicidal rate of 70% or more and less than 90%); herbicidal effect, H: barnyard grass (barnyard grass [6]): 0 (Herbicidal rate of 5% or less (almost no effect)); herbicidal effect, F: southern crabgrass (southern crabgrass [8]): 2 (Herbicidal rate of 20% or more and less than 40%); herbicidal effect, J: blackgrass (blackgrass [12]): 0 (Herbicidal rate of 5% or less (almost no effect)); herbicidal effect, G: green foxtail (green foxtail [16]): 0 (Herbicidal rate of 5% or less (almost no effect)); herbicidal effect, N: redroot pigweed (redroot pigweed [18]): 1 (Herbicidal rate of 5% or more and less than 20%); herbicidal effect, L: windgrass (windgrass [19]): 2 (Herbicidal rate of 20% or more and less than 40%); herbicidal effect, O: lambsquarters (lambsquarters [20]): 1 (Herbicidal rate of 5% or more and less than 20%); herbicidal effect, R: persian speedwell (persian speedwell [22]): 5 (Herbicidal rate of 90% or more (almost completely withered)); herbicidal effect, M: velvetleaf (velvetleaf [24]): 0 (Herbicidal rate of 5% or less (almost no effect))
